Tests used:
HLA B*5401 = HLA B*5401 (Homo sapiens, UniProt P01889, A329T/C349S/D138N/D201E/E176V/E187T/E204Q/E69G/I76V/K202T/L119W/R155S/R180L/S121T/S35A/S48A/V127L/V306I/V36M/Y140L); assay type: binding
HLA B*5101 = HLA B*5101 (Homo sapiens, UniProt P01889, A329T/A93T/A95T/C349S/D138N/D201E/D98Y/E187L/E204Q/E69T/G107R/I218V/K202T/L105A/L119W/N104I/Q94N/R106L/R155S/R180L/S101N/S121T/S35A/S48A/V306I/V36M/Y195H/Y91F); assay type: binding
H-2 D^d = H-2 D^d (Mus musculus, UniProt P01900); assay type: binding
HLA B*2705 = HLA B*2705 (Homo sapiens, UniProt P01889, D138H/D201E/E176V/E204Q/G107R/H137Y/K202T/N104T/N87E/Q56L/Q94K/R106L/R155S/R180L/S101D/S121N/S48T/Y140D/Y33H/Y91C); assay type: binding; details: positional scanning combinatorial 9-mer library; normalized to 1.0 for the best residue at each position
HLA B*1501 = HLA B*1501 (Homo sapiens, UniProt P01889, A329T/A93T/A95T/C349S/D201E/D98Y/E187L/E204Q/E69M/E70A/K202T/N87E/Q94N/R155S/R180W/S121R/S35A/S48A/V306I/V36M/Y140S/Y91S); test: biochemical; assay type: binding
HLA B*5802 = HLA B*5802 (Homo sapiens, UniProt P01889, A329T/C349S/D201E/D98Y/E176V/E187L/E204Q/E69T/G107R/I218V/I90N/K202T/L105A/N104I/N87E/Q89R/Q94S/R106L/R155S/R180L/R86G/S101N/S121W/S35A/S48A/V127L/V306I/V36M/Y140S/Y91M); assay type: binding
H-2 D^b = H-2 D^b (Mus musculus, UniProt P01899); assay type: binding
H-2 K^k = H-2 K^k (Mus musculus, UniProt P04223); assay type: binding
HLA B*0702 = HLA B*0702 (Homo sapiens, UniProt P01889); assay type: binding; details: positional scanning combinatorial 9-mer library; normalized to 1.0 for the best residue at each position
HLA B*5301 = HLA B*5301 (Homo sapiens, UniProt P01889, A329T/A93T/A95T/C349S/D201E/D98Y/E176V/E187L/E204Q/E69T/G107R/I218V/K202T/L105A/L119I/N104I/Q94N/R106L/R155S/R180L/S101N/S121R/S35A/S48A/T118I/V127L/V306I/V36M/Y140S/Y91F); assay type: binding
HLA A*3201 = HLA A*3201 (Homo sapiens, UniProt P04439, A270S/D101S/D185E/E176V/E277Q/F133L/G103R/G107R/G231S/H175R/I121M/I218V/I322F/K168Q/L105A/L300P/L318F/M331R/P208A/P217A/Q94H/R106L/R138Q/S129P/T104I/T323A/T345S/V100E/V321M/V358M); test: biochemical; assay type: binding
HLA B*0801 = HLA B*0801 (Homo sapiens, UniProt P01889, A93T/A95T/D138N/E176V/E187T/K202T/Q94N/R180D/S35A/V36M/Y33D/Y91F); test: biochemical; assay type: binding
HLA A*0201 = HLA A*0201 (Homo sapiens, UniProt P04439, D140Y/D185E/D98H/E176V/E277Q/G131W/G231S/I119V/I121R/I166T/I218V/L300P/L318F/N151K/N90K/P208A/P217A/Q86G/Q94H/R138H/R169H/T345S); details: positional scanning combinatorial 9-mer library; normalized to 1.0 for the best residue at each position
HLA A*3001 = HLA A*3001 (Homo sapiens, UniProt P04439, D140H/D185E/E176W/F33S/G80R/H175R/K168Q/R138E/R41S); test: biochemical; assay type: binding
HLA B*1503 = HLA B*1503 (Homo sapiens, UniProt P01889, A329T/A93T/A95T/C349S/D201E/D98Y/E187L/E204Q/K202T/N87E/Q94N/R155S/R180L/S121R/S35A/V306I/V36M/Y140S/Y91S); test: biochemical; assay type: binding
HLA B*5801 = HLA B*5801 (Homo sapiens, UniProt P01889, A329T/C349S/D201E/D98Y/E176V/E187L/E204Q/E69T/G107R/I218V/I90N/K202T/L105A/L119I/N104I/N87E/Q89R/Q94S/R106L/R155S/R180L/R86G/S101N/S121R/S35A/S48A/T118I/V127L/V306I/V36M/Y140S/Y91M); assay type: binding
HLA A*6802 = HLA A*6802 (Homo sapiens, UniProt P04439, A269V/D140Y/D185E/E176V/E277Q/E87N/F33Y/G231S/I121R/I166T/I218V/L180W/L300P/L318F/N151K/P208A/P217A/Q86R/R138H/R169H/S129P/T345S/V36M); assay type: binding
HLA B*3501 = HLA B*3501 (Homo sapiens, UniProt P01889, A329T/A93T/A95T/C349S/D201E/D98Y/E176V/E187L/E204Q/E69T/I218V/K202T/L119I/Q94N/R155S/R180L/S121R/S35A/S48A/T118I/V127L/V306I/V36M/Y140S/Y91F); assay type: binding

Sequence of H-2 K^k (P01887 21-119): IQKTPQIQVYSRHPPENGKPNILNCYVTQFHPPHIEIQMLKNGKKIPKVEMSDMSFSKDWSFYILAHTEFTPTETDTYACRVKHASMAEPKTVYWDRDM
Sequence of H-2 K^k (P04223 22-369): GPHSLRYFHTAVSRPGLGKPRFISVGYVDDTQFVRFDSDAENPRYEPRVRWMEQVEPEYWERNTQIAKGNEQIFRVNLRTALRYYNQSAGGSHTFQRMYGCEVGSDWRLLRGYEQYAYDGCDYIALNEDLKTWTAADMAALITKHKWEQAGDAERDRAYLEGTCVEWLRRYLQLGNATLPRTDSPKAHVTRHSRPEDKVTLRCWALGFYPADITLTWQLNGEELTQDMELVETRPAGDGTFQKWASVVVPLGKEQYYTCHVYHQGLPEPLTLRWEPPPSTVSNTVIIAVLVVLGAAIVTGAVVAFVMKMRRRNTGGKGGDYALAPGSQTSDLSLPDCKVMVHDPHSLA
Sequence of H-2 D^b (P01887 21-119): as the sequence (P01887 21-119) above
Sequence of H-2 D^b (P01899 25-362): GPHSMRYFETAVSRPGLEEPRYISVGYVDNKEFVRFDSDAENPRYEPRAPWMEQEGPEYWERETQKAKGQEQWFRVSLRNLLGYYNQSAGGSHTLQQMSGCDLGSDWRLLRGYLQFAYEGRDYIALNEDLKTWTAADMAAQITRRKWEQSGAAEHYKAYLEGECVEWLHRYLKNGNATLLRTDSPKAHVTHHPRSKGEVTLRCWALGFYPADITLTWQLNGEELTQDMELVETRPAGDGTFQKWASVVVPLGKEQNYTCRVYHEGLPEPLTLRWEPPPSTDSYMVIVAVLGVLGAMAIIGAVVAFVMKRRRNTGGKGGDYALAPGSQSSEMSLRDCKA
Sequence of H-2 D^d (P01900 whole entry, looked up): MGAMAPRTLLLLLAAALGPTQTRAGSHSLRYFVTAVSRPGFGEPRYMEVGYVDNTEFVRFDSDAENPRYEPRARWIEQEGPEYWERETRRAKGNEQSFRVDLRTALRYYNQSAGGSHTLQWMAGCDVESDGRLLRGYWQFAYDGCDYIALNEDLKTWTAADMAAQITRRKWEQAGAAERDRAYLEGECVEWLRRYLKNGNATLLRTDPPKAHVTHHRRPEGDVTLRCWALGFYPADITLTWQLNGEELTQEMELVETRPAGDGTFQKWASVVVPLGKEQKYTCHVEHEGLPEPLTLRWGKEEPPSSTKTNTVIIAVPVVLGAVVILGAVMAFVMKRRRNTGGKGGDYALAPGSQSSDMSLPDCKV

| Sequence | Normalized average relative binding affinity (ARB), HLA B*5401 (HLA B*5401) | Normalized average relative binding affinity (ARB), HLA B*5101 (HLA B*5101) | Normalized average relative binding affinity (ARB), H-2 Dd (H-2 D^d) | Normalized average relative binding affinity (ARB), HLA B*2705 (HLA B*2705) | Normalized average relative binding affinity (ARB), HLA B*1501 (HLA B*1501) | Normalized average relative binding affinity (ARB), HLA B*5802 (HLA B*5802) | Normalized average relative binding affinity (ARB), H-2 Db (H-2 D^b) | Normalized average relative binding affinity (ARB), H-2 Kk (H-2 K^k) | Normalized average relative binding affinity (ARB), HLA B*0702 (HLA B*0702) | Normalized average relative binding affinity (ARB), HLA B*5301 (HLA B*5301) | Normalized average relative binding affinity (ARB), HLA A*3201 (HLA A*3201) | Normalized average relative binding affinity (ARB), HLA B*0801 (HLA B*0801) | Normalized average relative binding affinity (ARB), HLA A*0201 (HLA A*0201) | Normalized average relative binding affinity (ARB), HLA A*3001 (HLA A*3001) | Normalized average relative binding affinity (ARB), HLA B*1503 (HLA B*1503) | Normalized average relative binding affinity (ARB), HLA B*5801 (HLA B*5801) | Normalized average relative binding affinity (ARB), HLA A*6802 (HLA A*6802) | Normalized average relative binding affinity (ARB), HLA B*3501 (HLA B*3501) |
| --- | --- | --- | --- | --- | --- | --- | --- | --- | --- | --- | --- | --- | --- | --- | --- | --- | --- | --- |
| DXXXXXXXX [3064.0003] | 0.050 | 0.27 | 0.059 | 0.022 | 0.042 | 0.068 | 0.033 | 0.43 | 0.021 | 0.028 | 0.031 | 0.13 | 0.0078 | 0.0069 | 0.016 | 0.013 | 0.21 | 0.11 |
| XWXXXXXXX [3064.0039] | 0.0040 | 0.050 | 0.061 | 0.0022 | 0.027 | 0.098 | 0.10 | 0.0069 | 0.0052 | 0.0054 | 0.034 | 0.024 | 0.0024 | 0.26 | 0.0038 | 0.0033 | 0.022 | 0.015 |
| XXWXXXXXX [3064.0059] | 1.0 | 0.47 | 0.0028 | 0.68 | 0.16 | 0.95 | 0.18 | 0.48 | 0.14 | 0.076 | 0.95 | 0.19 | 0.58 | 0.0080 | 0.35 | 0.29 | 0.70 | 0.61 |
| XXHXXXXXX [3064.0047] | 0.013 | 0.60 | 0.0028 | 0.26 | 0.68 | 0.42 | 0.20 | 0.72 | 0.39 | 0.059 | 0.24 | 0.35 | 0.27 | 0.089 | 0.19 | 0.19 | 0.14 | 0.094 |

From PMC2248166, “Quantitative peptide binding motifs for 19 human and mouse MHC class I molecules derived using positional scanning combinatorial peptide libraries” (Immunome Research, 2008)
